Measured values from paper PMC10490225, “Genome-Wide Characterization of Soybean Hexokinase Genes Reveals a Positive Role of GmHXK15 in Alkali Stress Response” (Plants, 2023).

Test system: T1, GmHXK15
T1 construct: CDS in pET32a(+) (NcoI/XhoI), His-tagged fusion, E. coli Rosetta / DE3, Ni-NTA
Assay: initial velocity, Michaelis-Menten / Eadie-Hofstee
Type: biochemical, Glycine max
Settings: assay pH, temperature and ATP not stated

Km (varied fructose) [µM]	Km (varied glucose) [µM]	SMILES
1300		OCC1(O)OC[C@@H](O)[C@@H](O)[C@@H]1O (some centres unmarked) [fructose]
	60	OC[C@H]1OC(O)[C@H](O)[C@@H](O)[C@@H]1O (some centres unmarked) [glucose]
